Data taken from the NIST ThermoML archive (doi:10.1021/acs.jced.6b00365).

Settings: dynamic light scattering

CCC(C)(C)OC [2-methoxy-2-methylbutane]
Settings	thermal diffusivity [m2/s]
291.5 K, Liquid	6.65e-08
302.19 K, Liquid	6.36e-08
312.11 K, Liquid	6.17e-08
323 K, Liquid	5.95e-08
332.51 K, Liquid	5.75e-08
342.71 K, Liquid	5.5e-08
352.32 K, Liquid	5.33e-08
363.24 K, Liquid	5.18e-08
373.18 K, Liquid	5e-08
382.92 K, Liquid	4.84e-08
388.1 K, Liquid	4.75e-08
392.6 K, Liquid	4.68e-08
398.45 K, Liquid	4.61e-08
402.91 K, Liquid	4.55e-08
418.23 K, Liquid	4.36e-08
423 K, Liquid	4.3e-08
428.55 K, Liquid	4.24e-08
432.78 K, Liquid	4.2e-08
438.24 K, Liquid	4.14e-08
442.67 K, Liquid	4.1e-08
448.19 K, Liquid	4.04e-08
453.53 K, Liquid	3.98e-08
458.62 K, Liquid	3.95e-08
463.3 K, Liquid	3.9e-08
468.1 K, Liquid	3.87e-08
472 K, Liquid	3.83e-08
477.88 K, Gas	2.54e-07
478.34 K, Liquid	3.81e-08
482.92 K, Liquid	3.78e-08
483.74 K, Gas	2.3e-07
487.65 K, Gas	2.13e-07
488.23 K, Liquid	3.75e-08
492.26 K, Liquid	3.71e-08
493.04 K, Gas	1.9e-07
498.77 K, Liquid	3.63e-08
499.05 K, Gas	1.63e-07
501.9 K, Liquid	3.6e-08
502.72 K, Gas	1.45e-07
504.05 K, Liquid	3.58e-08
506.94 K, Liquid	3.52e-08
508.18 K, Gas	1.21e-07
508.48 K, Liquid	3.51e-08
511.05 K, Liquid	3.42e-08
511.38 K, Gas	1.05e-07
514.02 K, Liquid	3.36e-08
517.41 K, Gas	7.83e-08
517.73 K, Liquid	3.2e-08
519.01 K, Liquid	3.15e-08
522.19 K, Liquid	2.98e-08
522.45 K, Gas	4.2e-08

Liquid
Settings	thermal diffusivity [m2/s]
373.1 K, 7000 kPa	5.35e-08
373.11 K, 4000 kPa	5.2e-08
373.12 K, 10000 kPa	5.47e-08
382.8 K, 4000 kPa	5.08e-08
382.83 K, 7000 kPa	5.23e-08
382.94 K, 10000 kPa	5.36e-08
392.61 K, 4000 kPa	4.9e-08
392.63 K, 7000 kPa	5.09e-08
392.73 K, 10000 kPa	5.23e-08
402.72 K, 4000 kPa	4.77e-08
402.77 K, 7000 kPa	4.93e-08
402.81 K, 10000 kPa	5.07e-08
412.73 K, 4000 kPa	4.66e-08
412.76 K, 7000 kPa	4.81e-08
412.86 K, 10000 kPa	4.94e-08
422.87 K, 10000 kPa	4.82e-08
423 K, 4000 kPa	4.52e-08
423.06 K, 7000 kPa	4.69e-08
432.66 K, 4000 kPa	4.42e-08
432.76 K, 7000 kPa	4.59e-08
432.8 K, 10000 kPa	4.72e-08
442.61 K, 4000 kPa	4.31e-08
442.7 K, 7000 kPa	4.47e-08
442.73 K, 10000 kPa	4.6e-08
453.25 K, 10000 kPa	4.51e-08
453.47 K, 4000 kPa	4.2e-08
453.58 K, 7000 kPa	4.37e-08
463.14 K, 4000 kPa	4.14e-08
463.21 K, 7000 kPa	4.31e-08
463.25 K, 10000 kPa	4.44e-08
472.15 K, 4000 kPa	4.08e-08
472.25 K, 7000 kPa	4.26e-08
472.35 K, 10000 kPa	4.39e-08
478.13 K, 10000 kPa	4.36e-08
478.14 K, 7000 kPa	4.22e-08
478.39 K, 4000 kPa	4.06e-08
483.16 K, 7000 kPa	4.19e-08
483.16 K, 10000 kPa	4.32e-08
483.31 K, 4000 kPa	4.02e-08
488.17 K, 7000 kPa	4.16e-08
488.18 K, 10000 kPa	4.29e-08
488.54 K, 4000 kPa	3.98e-08
492.58 K, 4000 kPa	3.96e-08
493.13 K, 7000 kPa	4.13e-08
493.14 K, 10000 kPa	4.26e-08
498.16 K, 10000 kPa	4.22e-08
498.25 K, 7000 kPa	4.08e-08
499 K, 4000 kPa	3.9e-08
503.15 K, 10000 kPa	4.18e-08
503.16 K, 4000 kPa	3.85e-08
503.2 K, 7000 kPa	4.04e-08
508.09 K, 7000 kPa	3.99e-08
508.14 K, 10000 kPa	4.15e-08
508.25 K, 4000 kPa	3.8e-08
512.28 K, 4000 kPa	3.72e-08
512.29 K, 7000 kPa	3.94e-08
512.53 K, 10000 kPa	4.12e-08
517.79 K, 4000 kPa	3.63e-08
517.85 K, 7000 kPa	3.9e-08
518.05 K, 10000 kPa	4.08e-08
523.25 K, 4000 kPa	3.53e-08
523.25 K, 7000 kPa	3.84e-08
523.25 K, 10000 kPa	4.05e-08
